According to ChEMBL document CHEMBL1147043, “Comparative metabolism of radiolabeled muraglitazar in animals and humans by quantitative and qualitative metabolite profiling” (Drug Metab Dispos, 2007):

Experiments:
[1] = Drug concentration in bile duct-cannulated CD1 mouse bile at 40 mg/kg, po after 24 hrs; format: ADME, organism-based; set-up: dose 40 mg/kg, route oral; conditions: read-out: Drug uptake
[2] = system: Plasma; test: Biodistribution in orally dosed Sprague-Dawley rat plasma assessed as O-Dealkyl muraglitazar level after 12 hrs by LC/MS analysis; format: ADME, organism-based; conditions: in vivo, po
[3] = Biodistribution in orally dosed Beagle dog feces assessed as muraglitazar 12-carboxylic acid level by LC/MS analysis; format: ADME, organism-based, Canis lupus familiaris; conditions: in vivo, po
[4] = Biodistribution in orally dosed cynomolgus monkey urine assessed as muraglitazar 12-carboxylic acid level by LC/MS analysis; format: ADME, organism-based, Macaca fascicularis; conditions: in vivo, po
[5] = Biodistribution in orally dosed human feces assessed as muraglitazar 12-carboxylic acid level by LC/MS analysis; format: ADME, organism-based; conditions: in vivo, po
[6] = system: Hepatocyte; test: Metabolic stability in Sprague-Dawley rat hepatocytes assessed as 8,12-dihydroxy muraglitazar level by LC/MS analysis relative to control; format: ADME, cell-based
[7] = Metabolic stability in cynomolgus monkey hepatocytes assessed as 8-hydroxy-O-demethyl muraglitazar level by LC/MS analysis relative to control; format: ADME, cell-based, Macaca fascicularis, Hepatocyte
[8] = Metabolic stability in cynomolgus monkey hepatocytes assessed as 8-hydroxy muraglitazar level by LC/MS analysis relative to control; format: ADME, cell-based, Macaca fascicularis, Hepatocyte
[9] = Metabolic stability in cynomolgus monkey hepatocytes assessed as 17-hydroxy muraglitazar level by LC/MS analysis relative to control; format: ADME, cell-based, Macaca fascicularis, Hepatocyte
[10] = Metabolic stability in cynomolgus monkey hepatocytes assessed as muraglitazar 12-carboxylic acid level by LC/MS analysis relative to control; format: ADME, cell-based, Macaca fascicularis, Hepatocyte
[11] = Metabolic stability in cynomolgus monkey hepatocytes assessed as muraglitazar glucuronide level by LC/MS analysis relative to control; format: ADME, cell-based, Macaca fascicularis, Hepatocyte
[12] = system: Hepatocyte; test: Metabolic stability in human hepatocytes assessed as 8-hydroxy-O-demethyl muraglitazar level by LC/MS analysis relative to control; format: ADME, cell-based
[13] = system: Hepatocyte; test: Metabolic stability in human hepatocytes assessed as 9-hydroxy-O-demethyl muraglitazar level by LC/MS analysis relative to control; format: ADME, cell-based
[14] = Biodistribution in orally dosed Beagle dog feces assessed as 9-hydroxy muraglitazar level by LC/MS analysis; format: ADME, organism-based, Canis lupus familiaris; conditions: in vivo, po
[15] = Biodistribution in orally dosed Beagle dog urine assessed as O-dealkyl-O-demethyl muraglitazar level by LC/MS analysis; format: ADME, organism-based, Canis lupus familiaris; conditions: in vivo, po
[16] = Biodistribution in orally dosed cynomolgus monkey feces assessed as O-dealkyl-O-demethyl muraglitazar level by LC/MS analysis; format: ADME, organism-based, Macaca fascicularis; conditions: in vivo, po
[17] = Metabolic stability in CD1 mouse hepatocytes assessed as O-demethyl muraglitazar level by LC/MS analysis relative to control; format: ADME, cell-based, Hepatocyte
[18] = system: Hepatocyte; test: Metabolic stability in Sprague-Dawley rat hepatocytes assessed as 17-hydroxy muraglitazar level by LC/MS analysis relative to control; format: ADME, cell-based
[19] = system: Hepatocyte; test: Metabolic stability in Sprague-Dawley rat hepatocytes assessed as muraglitazar glucuronide level by LC/MS analysis relative to control; format: ADME, cell-based
[20] = Biodistribution in orally dosed Beagle dog feces assessed as 12,17-dihydroxy muraglitazar level by LC/MS analysis; format: ADME, organism-based, Canis lupus familiaris; conditions: in vivo, po
[21] = Biodistribution in orally dosed human feces assessed as 8-hydroxy muraglitazar level by LC/MS analysis; format: ADME, organism-based; conditions: in vivo, po
[22] = system: Rattus norvegicus; test: Biodistribution in orally dosed Sprague-Dawley rat feces assessed as imide derivative of muraglitazar level by LC/MS analysis; format: ADME, organism-based; conditions: in vivo, po
[23] = Biodistribution in orally dosed Beagle dog feces assessed as imide derivative of muraglitazar level by LC/MS analysis; format: ADME, organism-based, Canis lupus familiaris; conditions: in vivo, po
[24] = Biodistribution in orally dosed cynomolgus monkey feces assessed as imide derivative of muraglitazar level by LC/MS analysis; format: ADME, organism-based, Macaca fascicularis; conditions: in vivo, po
[25] = Drug concentration in human urine assessed as recovery of radioactive dose at 10 mg, po after 240 hrs; format: ADME, organism-based; conditions: in vivo
[26] = Metabolic stability in cynomolgus monkey hepatocytes assessed as radioactivity recovaries at 25.6 ug/mL after 4 hrs; format: ADME, cell-based, Macaca fascicularis, Hepatocyte
[27] = Fecal excretion rate in orally dosed Sprague-Dawley rat within 24 hrs; format: ADME, organism-based; conditions: faeces, po, read-out: Activity
[28] = Fecal excretion of compound in orally dosed cynomolgus monkey within 96 hrs; format: ADME, organism-based, Macaca fascicularis; conditions: faeces, po, read-out: Activity
[29] = Fecal excretion of compound in orally dosed human within 96 hrs; format: ADME, organism-based; conditions: faeces, po, read-out: Activity
[30] = system: Plasma; test: Biodistribution in orally dosed cynomolgus monkey plasma assessed as muraglitazar glucuronide level after 4 hrs by LC/MS analysis; format: ADME, organism-based, Macaca fascicularis; conditions: in vivo, po
[31] = system: Plasma; test: Biodistribution in orally dosed human plasma assessed as O-demethyl muraglitazar level after 1 hr by LC/MS analysis; format: ADME, organism-based; conditions: in vivo, po
[32] = system: Plasma; test: Biodistribution in orally dosed human plasma assessed as O-demethyl muraglitazar level after 12 hrs by LC/MS analysis; format: ADME, organism-based; conditions: in vivo, po
[33] = Biodistribution in orally dosed human feces assessed as 8,12-dihydroxy muraglitazar level by LC/MS analysis; format: ADME, organism-based; conditions: in vivo, po
[34] = Biodistribution in orally dosed cynomolgus monkey feces assessed as 12-hydroxy-O-demethyl muraglitazar level by LC/MS analysis; format: ADME, organism-based, Macaca fascicularis; conditions: in vivo, po
[35] = Biodistribution in orally dosed human urine assessed as 12-hydroxy-O-demethyl muraglitazar level by LC/MS analysis; format: ADME, organism-based; conditions: in vivo, po
[36] = Biodistribution in orally dosed human feces assessed as 12-hydroxy-O-demethyl muraglitazar level by LC/MS analysis; format: ADME, organism-based; conditions: in vivo, po
[37] = Drug concentration in bile duct-cannulated Sprague-Dawley rat feces assessed as recovery of radioactive dose at 11 mg/kg, po after 24 hrs; format: ADME, organism-based; set-up: dose 11 mg/kg, route oral; conditions: in vivo
[38] = Drug concentration in bile duct-cannulated Sprague-Dawley rat bile assessed as recovery of radioactive dose at 11 mg/kg, po after 24 hrs; format: ADME, organism-based; set-up: dose 11 mg/kg, route oral; conditions: in vivo
[39] = Drug concentration in bile duct-cannulated CD1 mouse bile assessed as recovery of radioactive dose at 40 mg/kg, po after 24 hrs; format: ADME, organism-based; set-up: dose 40 mg/kg, route oral; conditions: in vivo
[40] = system: Plasma; test: Biodistribution in orally dosed cynomolgus monkey plasma assessed as 12-dihydroxy muraglitazar level after 4 hrs by LC/MS analysis; format: ADME, organism-based, Macaca fascicularis; conditions: in vivo, po
[41] = system: Plasma; test: Biodistribution in orally dosed cynomolgus monkey plasma assessed as muraglitazar 12-carboxylic acid level after 4 hrs by LC/MS analysis; format: ADME, organism-based, Macaca fascicularis; conditions: in vivo, po
[42] = system: Plasma; test: Biodistribution in orally dosed cynomolgus monkey plasma assessed as O-demethyl muraglitazar glucuronide level after 4 hrs by LC/MS analysis; format: ADME, organism-based, Macaca fascicularis; conditions: in vivo, po
[43] = system: Plasma; test: Biodistribution in orally dosed Beagle dog plasma assessed as O-Dealkyl muraglitazar level after 12 hrs by LC/MS analysis; format: ADME, organism-based, Canis lupus familiaris; conditions: in vivo, po
[44] = system: Plasma; test: Biodistribution in orally dosed cynomolgus monkey plasma assessed as 8-hydroxy-O-demethyl muraglitazar level after 4 hrs by LC/MS analysis; format: ADME, organism-based, Macaca fascicularis; conditions: in vivo, po
[45] = system: Plasma; test: Biodistribution in orally dosed Beagle dog plasma assessed as 12-hydroxy-O-demethyl muraglitazar level after 12 hrs by LC/MS analysis; format: ADME, organism-based, Canis lupus familiaris; conditions: in vivo, po
[46] = system: Plasma; test: Biodistribution in orally dosed human plasma assessed as 12-hydroxy-O-demethyl muraglitazar level after 12 hrs by LC/MS analysis; format: ADME, organism-based; conditions: in vivo, po
[47] = Biodistribution in orally dosed cynomolgus monkey urine assessed as 17-hydroxy-O-demethyl muraglitazar level by LC/MS analysis; format: ADME, organism-based, Macaca fascicularis; conditions: in vivo, po
[48] = Biodistribution in orally dosed cynomolgus monkey feces assessed as 17-hydroxy-O-demethyl muraglitazar level by LC/MS analysis; format: ADME, organism-based, Macaca fascicularis; conditions: in vivo, po
[49] = Biodistribution in orally dosed human feces assessed as 17-hydroxy-O-demethyl muraglitazar level by LC/MS analysis; format: ADME, organism-based; conditions: in vivo, po
[50] = Tmax in cynomolgus monkey at 1.9 mg/kg, po after 24 hrs; format: ADME, organism-based, Macaca fascicularis; set-up: dose 1.9 mg/kg, route oral; conditions: in vivo
[51] = system: Homo sapiens; test: Cmax in human at 10 mg, po after 72 hrs; format: ADME, organism-based; set-up: dose 10 mg, route oral; conditions: in vivo
[52] = system: Rattus norvegicus; test: Biodistribution in orally dosed Sprague-Dawley rat feces assessed as O-dealkyl muraglitazar level by LC/MS analysis; format: ADME, organism-based; conditions: in vivo, po
[53] = Biodistribution in orally dosed Beagle dog feces assessed as O-dealkyl muraglitazar level by LC/MS analysis; format: ADME, organism-based, Canis lupus familiaris; conditions: in vivo, po

## COc1ccc(OC(=O)N(CC(=O)O)Cc2ccc(OCCc3nc(-c4ccccc4)oc3C)cc2)cc1 [MURAGLITAZAR]
[1]
  dose excreted at 24 h: 13.2%
[2]
  Drug uptake: 0.05%
[3]
  Drug uptake: 0.1%
[4]
  Drug uptake: 0.04%
[5]
  Drug uptake: 0.13%
[6]
  Drug uptake: < 0.2%
[7]
  Drug uptake: < 0.2%
[8]
  Drug uptake: < 0.2%
[9]
  Drug uptake: 7.9%
[10]
  Drug uptake: 13%
[11]
  Drug uptake: 1.7%
[12]
  Drug uptake: < 0.2%
[13]
  Drug uptake: < 0.2%
[14]
  Drug uptake: 0.85%
[15]
  Drug uptake: 0.01%
[16]
  Drug uptake: 0.4%
[17]
  Drug uptake: 1.2%
[18]
  Drug uptake: 2%
[19]
  Drug uptake: 0.5%
[20]
  Drug uptake: 0.89%
[21]
  Drug uptake: 0.56%
[22]
  Drug uptake: 2.63%
[23]
  Drug uptake: 0.89%
[24]
  Drug uptake: 0.56%
[25]
  Drug uptake: 2.6%
[26]
  Stability: 99.2%
[27]
  dose excreted at 24 h: 85%
[28]
  dose excreted at 96 h: 75%
[29]
  dose excreted at 96 h: 80%
[30]
  Drug uptake: 0.2%
[31]
  Drug uptake: 0.2%
[32]
  Drug uptake: 0.4%
[33]
  Drug uptake: 2.83%
[34]
  Drug uptake: 1.61%
[35]
  Drug uptake: 0.16%
[36]
  Drug uptake: 11.45%
[37]
  Drug uptake: 0.55%
[38]
  Drug uptake: 65.1%
[39]
  Drug uptake: 66%
[40]
  Drug uptake: 1.6%
[41]
  Drug uptake: < 0.05%
[42]
  Drug uptake: 0.2%
[43]
  Drug uptake: 9%
[44]
  Drug uptake: 0.1%
[45]
  Drug uptake: 15%
[46]
  Drug uptake: 1%
[47]
  Drug uptake: 0.01%
[48]
  Drug uptake: 3.22%
[49]
  Drug uptake: 1.48%
[50]
  Tmax: 1 h
[51]
  Cmax: 1.4 ugequiv/ml
[52]
  Drug uptake: 1.75%
[53]
  Drug uptake: 0.89%
